This passage reports IC50 results from US20260008783A1, “MODULATORS OF FSHR AND USES THEREOF” (Celmatix Inc., priority 2022, published 2026).

This assay concerns the target T1, Follicle Stimulating Hormone Receptor (FSHR) (Homo sapiens, UniProt P23945).
T1 construct: HA (N); expressed in transfected cells; host or cells: CHO-K1, transient transfection, pHM6 vector (CMV promoter)
T1 sequence (P23945 18-695): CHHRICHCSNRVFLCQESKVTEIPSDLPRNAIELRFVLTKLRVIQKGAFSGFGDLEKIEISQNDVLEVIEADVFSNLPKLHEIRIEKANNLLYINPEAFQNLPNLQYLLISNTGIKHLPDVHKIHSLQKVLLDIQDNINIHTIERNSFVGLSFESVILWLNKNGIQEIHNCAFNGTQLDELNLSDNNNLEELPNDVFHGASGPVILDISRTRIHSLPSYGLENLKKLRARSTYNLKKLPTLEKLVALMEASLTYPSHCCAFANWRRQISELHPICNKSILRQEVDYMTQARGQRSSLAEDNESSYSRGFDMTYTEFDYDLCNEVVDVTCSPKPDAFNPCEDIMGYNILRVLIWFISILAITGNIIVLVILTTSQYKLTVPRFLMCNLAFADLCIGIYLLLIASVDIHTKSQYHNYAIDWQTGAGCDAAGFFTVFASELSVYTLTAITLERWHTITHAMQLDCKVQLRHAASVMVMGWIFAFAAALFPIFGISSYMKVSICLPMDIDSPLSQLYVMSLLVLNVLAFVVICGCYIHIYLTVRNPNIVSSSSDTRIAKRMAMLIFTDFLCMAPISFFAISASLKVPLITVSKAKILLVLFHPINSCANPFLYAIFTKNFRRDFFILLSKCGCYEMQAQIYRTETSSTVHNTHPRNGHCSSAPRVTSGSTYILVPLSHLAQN
Nature of the assay: HTRF cAMP agonist assay, FSHR, transiently transfected CHO-K1 cells. It is filed as cell-based. As to conditions: CHO-K1 cells transiently expressing human FSHR, read-out: IC50 FSHR LANCE CAMP. The source says: Example 17. HTRF cAMP Agonist Assay Protocol (for FSHR, TSHR, LHCGR)
Mammalian expression vectors designed to express either Follicle Stimulating Hormone Receptor (FSHR), Thyroid Stimulating Hormone Receptor (TSHR), or Luteinizing Hormone/Choriogonadotropin Receptor (LHCGR), were generated with an HA-tag on the N-terminus. All constructs were expressed under a human cytomegalovirus (CMV) immediate early enhancer and promoter using the pHM6 expression vector. The protein coding region was confirmed by sequence analysis to be in-frame and of the expected sequence, matching the following accession numbers: FSHR NM_000145, TSHR NM_000369, and LHCGR NM_000233.
HTRF cAMP assays were performed using Chinese Hamster Ovary (CHO-K1) cell lines transiently expressing human FSH, TSH, and LHCG receptors. 48 hours before the assay, cells were washed with PBS and then dissociated from tissue culture flasks with 0.25% trypsin. Dissociated cells were quenched in full media (F-12K Medium Corning REF #10-025-CV, 10% Avantor Seradigm FB Essence Cat #10803-034, 1% Penicillin/Streptomycin Cytiva HyClone Cat #SV30010) and then collected by centrifugation at 290×g for 5 min. Cells were resuspended in full media and dispensed into 150 mm cell culture dishes (Nest Scientific Cat #715001), at 2.3×10^6 cells/flask. 7 hours later, cells were transfected using Lipofectamine transfection reagent (Invitrogen Cat #18324020). Briefly, 60 μL of lipofectamine was dispensed into 2 mL of Opti-MEM (Gibco Cat #31985070) and incubated for 5 minutes at room temperature. Then, the mixture was added onto […] of DNA and incubated for another 20 minutes at room temperature. Cells were washed with warm (37° C.) PBS. 17.5 mL of Opti-MEM was dispensed onto the cells, followed by addition of the Opti-MEM/lipofectamine/DNA mixture. Cells were incubated overnight in a 37° C., 5% CO2 cell incubator. 17-19 hours later, Opti-MEM was aspirated off the cells and replaced with full media. Cells were incubated for another 24 hours in a 37° C., 5% CO2 cell incubator.
On the day of the assay, cells were washed with PBS and then dissociated from tissue culture flasks with 0.25% trypsin. Dissociated cells were quenched in full media and then collected by centrifugation at 290×g for 5 min. Cells were resuspended in PBS^+/+ (Corning REF #20-030-CV) to a concentration of 2×10^5 cells/mL. 10 μL/well of cells (2,000 cells/well) were dispensed into 384-well Corning plates (REF #3825), in triplicate. Cells were incubated at room temperature for 2 hours.
Example FSHR Modulator compounds were diluted in assay buffer (PBS^+/+, 0.05% BSA Sigma-Aldrich A3059, 500 μM IBMX Sigma-Aldrich 15879) to 3.5× the final assay concentration. 4 μL of test agonist was added to the cells and incubated for 1 hour at room temperature. 10 μL of cAMP detection reagents (LANCE Ultra cAMP Detection Kit PerkinElmer TRF0264) were dispensed onto the cells and plates were incubated for 2 hours at room temperature (cAMP detection reagents were made according to the PerkinElmer kit protocol). Plates were read on an Envision plate reader following PerkinElmer guidelines.
Raw data for all assays was transmitted directly from plate readers into a database for processing. All assay plates contained both positive and negative control wells to allow for data normalization and scaling. In agonist assays, negative control wells contained assay buffer and positive control wells contained […] positive control (10 nM Follicle Stimulating Hormone Sigma-Aldrich F4021, 50 nM Thyroid Stimulating Hormone Sigma-Aldrich 869006, 50 nM Luteinizing Hormone MyBioSource MBS5308806, for their respective receptors). All control wells contained DMSO at a final assay concentration that matched the test compound wells. […]
Percent control data were analyzed by non-linear regression with a sigmoidal dose response algorithm in the database to yield potency and efficacy data.
On the technique in general: In TR-FRET formats the signal depends on donor and acceptor labels being close together.
By IC50 is commonly meant the midpoint of a concentration-inhibition curve. For the compound `COc1cc2c(cc1-c1cncc(C(N)=O)c1)-c1c(c(C(=O)N3CCCNCC3)nn1-c1cc(Cl)cc(Cl)c1)CC2` [Compound 8-03, 5-[3-(1,4-diazepane-1-carbonyl)-1-(3,5-dichlorophenyl)-7-methoxy-4,5-dihydrobenzo[g]indazol-8-yl]pyridine-3-carboxamide], the IC50 was determined as 449 nM.

With `COc1cc2c(cc1-c1cncc(C(N)=O)c1)-c1c(c(C(=O)N3CCCNCC3(C)C)nn1-c1cc(Cl)cc(Cl)c1)CC2` [Compound 8-04, 5-[1-(3,5-dichlorophenyl)-3-(2,2-dimethyl-1,4-diazepane-1-carbonyl)-7-methoxy-4,5-dihydrobenzo[g]indazol-8-yl]pyridine-3-carboxamide], the IC50 is 28.3 nM.

On to `COc1cc2c(cc1-c1cncc(C(N)=O)c1)-c1c(c(C(=O)N3CCC(=O)NCC3(C)C)nn1-c1cc(Cl)cc(Cl)c1)CC2` [Compound 8-04A, 5-[1-(3,5-dichlorophenyl)-3-(2,2-dimethyl-5-oxo-1,4-diazepane-1-carbonyl)-7-methoxy-4,5-dihydrobenzo[g]indazol-8-yl]pyridine-3-carboxamide], for which the IC50 was determined as 9.79 nM.

With `COc1cc2c(cc1-c1cncc(C(N)=O)c1)-c1c(c(C(=O)N3CCN(C)CC3C)nn1-c1cc(Cl)cc(Cl)c1)CC2` (centres unmarked) [Compound 8-05, 5-[1-(3,5-dichlorophenyl)-3-(2,4-dimethylpiperazine-1-carbonyl)-7-methoxy-4,5-dihydrobenzo[g]indazol-8-yl]pyridine-3-carboxamide], the IC50 was 60.3 nM.

Consider `COc1cc2c(cc1-c1cncc(C(N)=O)c1)-c1c(c(C(=O)N3CCN(C)CC3(C)C)nn1-c1cc(Cl)cc(Cl)c1)CC2` [Compound 8-06], for which the IC50 was 17.6 nM.

In the case of `COc1cc2c(cc1-c1cncc(C(N)=O)c1)-c1c(c(C(=O)N3CCCN(C)CC3)nn1-c1cc(Cl)cc(Cl)c1)CC2` [Compound 8-07, 5-[1-(3,5-dichlorophenyl)-7-methoxy-3-(4-methyl-1,4-diazepane-1-carbonyl)-4,5-dihydrobenzo[g]indazol-8-yl]pyridine-3-carboxamide], the IC50 amounted to 115 nM.

Take `COc1cc2c(cc1-c1cncc(C#N)c1)-c1c(c(C(=O)N3CCCN(C)CC3)nn1-c1cc(Cl)cc(Cl)c1)CC2` [Compound 8-07A, 5-(1-(3,5-dichlorophenyl)-7-methoxy-3-(4-methyl-1,4-diazepane-1-carbonyl)-4,5-dihydro-1H-benzo[g]indazol-8-yl)nicotinonitrile]: the IC50 is 3040 nM.

In the case of `COc1cc2c(cc1-c1cncc(C(N)=O)c1)-c1c(c(C(=O)N3CCN(C#N)CC3C)nn1-c1cc(Cl)cc(Cl)c1)CC2` (centres unmarked) [Compound 8-09, 5-[3-(4-cyano-2-methyl-piperazine-1-carbonyl)-1-(3,5-dichlorophenyl)-7-methoxy-4,5-dihydrobenzo[g]indazol-8-yl]pyridine-3-carboxamide], the IC50 came to 4.44 nM.

Consider `COc1cc2c(cc1-c1cncc(C(N)=O)c1)-c1c(c(C(=O)N(C)C(C)(C)CO)nn1-c1cc(Cl)cc(Cl)c1)CC2` [Compound 8-10], for which the IC50 turned out to be 991 nM.

In the case of `COc1cc2c(cc1-c1cncc(C(N)=O)c1)-c1c(c(C(=O)N3CCC(S(C)(=O)=O)CC3C)nn1-c1cc(Cl)cc(Cl)c1)CC2` (centres unmarked) [Compound 8-13, 5-[1-(3,5-dichlorophenyl)-7-methoxy-3-(2-methyl-4-methylsulfonyl-piperidine-1-carbonyl)-4,5-dihydrobenzo[g]indazol-8-yl]pyridine-3-carboxamide], the IC50 is 244 nM.

Consider `COc1cc2c(cc1-c1cncc(C(N)=O)c1)-c1c(c(C(=O)N3CCCC3(C)C)nn1-c1cc(Cl)cc(Cl)c1)CC2` [Compound 8-14], for which the IC50 came out at 3.47 nM.

For the compound `COc1cc2c(cc1-c1cncc(C(N)=O)c1)-c1c(c(C(=O)N3C4CCC3CN(C)C4)nn1-c1cc(Cl)cc(Cl)c1)CC2` [Compound 8-15], the IC50 came to 33.2 nM.

As for `COc1cc2c(cc1-c1cncc(C(N)=O)c1)-c1c(c(C(=O)N3C4CC3CN(C(=O)OC(C)(C)C)C4)nn1-c1cc(Cl)cc(Cl)c1)CC2` [Compound 8-16A], the IC50 stood at 79.3 nM.

For `COc1cc2c(cc1-c1cncc(C(N)=O)c1)-c1c(c(C(=O)N3C4CNCC3C4)nn1-c1cc(Cl)cc(Cl)c1)CC2` [Compound 8-16B], the IC50 stood at 769 nM.

Take `COc1cc2c(cc1-c1cncc(C(N)=O)c1)-c1c(c(C(=O)N3C4CC3CN(C)C4)nn1-c1cc(Cl)cc(Cl)c1)CC2` [Compound 8-16]: the IC50 amounted to 70.4 nM.

For `COc1cc2c(cc1-c1cncc(C(N)=O)c1)-c1c(c(C(=O)N3CC4CCC3CN4C)nn1-c1cc(Cl)cc(Cl)c1)CC2` (centres unmarked) [Compound 8-17], the IC50 amounted to 115 nM.

As to `COc1cc2c(cc1-c1cncc(C(N)=O)c1)-c1c(c(C(=O)N3[C@@H]4CC[C@H]3CN(C)C4)nn1-c1cc(Cl)cc(Cl)c1)CC2` [Compound 8-18], the IC50 worked out at 18 nM.

As to `COc1cc2c(cc1-c1cncc(C(N)=O)c1)-c1c(c(C(=O)N3[C@H](C)CNC[C@@H]3C)nn1-c1cc(Cl)cc(Cl)c1)CC2` [Compound 8-21], the IC50 stood at 5.38 nM.

As to `COc1cc2c(cc1-c1cncc(C(N)=O)c1)-c1c(c(C(=O)N3[C@@H](C)CNC[C@@H]3C)nn1-c1cc(Cl)cc(Cl)c1)CC2` [Compound 8-22], the half-inhibitory concentration (IC50) was 34.9 nM.

Turning to `COc1cc2c(cc1-c1cncc(C(N)=O)c1)-c1c(c(C(=O)N3CCC4CNCCC43)nn1-c1cc(Cl)cc(Cl)c1)CC2` (centres unmarked) [Compound 8-23, 5-[3-(2,3,3a,4,5,6,7,7a-octahydropyrrolo[3,2-c]pyridine-1-carbonyl)-1-(3,5-dichlorophenyl)-7-methoxy-4,5-dihydrobenzo[g]indazol-8-yl]pyridine-3-carboxamide], the IC50 is 457 nM.

For the compound `COc1cc2c(cc1-c1cncc(C(N)=O)c1)-c1c(c(C(=O)N3CCC4CN(C(=O)OC(C)(C)C)CCC43)nn1-c1cc(Cl)cc(Cl)c1)CC2` (centres unmarked) [Compound 8-23A, tert-butyl 1-[8-(5-carbamoyl-3-pyridyl)-1-(3,5-dichlorophenyl)-7-methoxy-4,5-dihydrobenzo[g]indazole-3-carbonyl]-3,3a,4,6,7,7a-hexahydro-2H-pyrrolo[3,2-c]pyridine-5-carboxylate], the IC50 was determined as 928 nM.

For the compound `COc1cc2c(cc1-c1cncc(C(N)=O)c1)-c1c(c(C(=O)N3CC4CCC3CN4)nn1-c1cc(Cl)cc(Cl)c1)CC2` (centres unmarked) [Compound 8-24], the IC50 was 524 nM.

For `COc1cc2c(cc1-c1cncc(C(N)=O)c1)-c1c(c(C(=O)N3CCNC[C@H]3C(C)C)nn1-c1cc(Cl)cc(Cl)c1)CC2` [Compound 8-25], the IC50 amounted to 71.8 nM.
